Assay results taken from patent US10881110B2, “Herbicidal compositions comprising isoxazolo[5,4-b]pyridines” (BASF SE, priority 2014, dated 2021).
Read-outs that look alike come from different tables or passages of the source.

How the values were obtained:
Test in all cases: greenhouse post-emergence herbicidal test
IPOHE = type: in vivo, Ipomoea hederacea; parameters: key to herbicidal activity against IPOHE found: rating on a scale from 0 to 100; details: post emergence, g/ha a.i.: I.1 31.25
How it was run: (§1)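 Post-emergence greenhouse test: plants in loamy sand, sprayed at 1–15 cm height with aqueous spray liquor from 10% emulsion concentrates, kept at 10-25 °C or 20-35 °C by species. Damage scored 0–100 (100 = complete destruction), usually 20 days after treatment. Expected additive effect E from Colby: E=X+Y−(X·Y/100).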

PAPRH = type: in vivo, Papaver rhoeas; parameters: key: rating on a scale from 0 to 100
How it was run: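 Visual rating at 20 days after treatment used a 0–100 scale, where 100 meant no emergence or complete destruction of above-ground parts. Seedlings of 1–15 cm, grown at species-dependent 10-25° C or 20-35° C, received water-based spray liquor containing the formulated components.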

POLCO = type: in vivo, Polygonum convolvulus; parameters: key to herbicidal activity against POLCO found: rating on a scale from 0 to 100; details: post emergence
How it was run: as §1

[1] = applied alone at 31.25 g/ha a.i.

## O=C(O)c1cc(C2CC2)nc2onc(C3CC3)c12 [I.1]
IPOHE; B.20 2, mixture 31.25+2
  herbicidal activity against IPOHE found: 25
IPOHE; B.24 1, mixture 31.25+1
  herbicidal activity against IPOHE found: 25
PAPRH; 62.5 g/ha a.i.
  herbicidal activity against PAPRH found: 50
PAPRH; I.1 15.62 g/ha, B.103 15 g/ha a.i.
  herbicidal activity against PAPRH found: 30
PAPRH; I.1 15.62 g/ha, B.88 2 g/ha a.i.
  herbicidal activity against PAPRH found: 70
PAPRH; I.1 31.25 g/ha, B.103 15 g/ha a.i.
  herbicidal activity against PAPRH found: 30
PAPRH; I.1 31.25 g/ha, B.88 1 g/ha a.i.
  herbicidal activity against PAPRH found: 75
PAPRH; I.1 31.25 g/ha, B.88 2 g/ha a.i.
  herbicidal activity against PAPRH found: 75
PAPRH; I.1 31.25 g/ha, B.95 1 g/ha a.i.
  herbicidal activity against PAPRH found: 75
PAPRH; I.1 62.5 g/ha, B.57 2 g/ha a.i.
  herbicidal activity against PAPRH found: 75
PAPRH; I.1 62.5 g/ha, B.88 1 g/ha a.i.
  herbicidal activity against PAPRH found: 75
PAPRH; I.1 62.5 g/ha, B.88 2 g/ha a.i.
  herbicidal activity against PAPRH found: 75
PAPRH; I.1 62.5 g/ha, B.95 1 g/ha a.i.
  herbicidal activity against PAPRH found: 75
PAPRH; I.1 alone 31.25 g/ha a.i.
  herbicidal activity against PAPRH found: 70
PAPRH; application rate a.i.: I.1 62.5 g/ha, B.40 (imazethapyr) 7.5 g/ha, alone or as mixture (composition 1.40)
  herbicidal activity against PAPRH found: 65
PAPRH; application rate a.i.: I.1 62.5 g/ha, B.87 (carfentrazone-ethyl) 1.75 g/ha, alone or as mixture (composition 1.87)
  herbicidal activity against PAPRH found: 85
PAPRH; [1]
  herbicidal activity against PAPRH found: 65
POLCO; Fallopia convolvulus, post-emergence, 480 h, I.1 alone 31.25 g/ha a.i., read-out: herbicidal activity against POLCO found
  pest or weed control at 31.25 g/ha: 0%
POLCO; Fallopia convolvulus, post-emergence, 480 h, I.1 alone 62.5 g/ha a.i., read-out: herbicidal activity against POLCO found
  pest or weed control at 62.5 g/ha: 65%
POLCO; Fallopia convolvulus, post-emergence, 480 h, I.1 alone 125 g/ha a.i., read-out: herbicidal activity against POLCO found
  pest or weed control at 125 g/ha: 65%
POLCO; Fallopia convolvulus, post-emergence, 480 h, I.1 31.25 g/ha a.i., read-out: herbicidal activity against POLCO found
  pest or weed control at 31.25 g/ha: 20%
POLCO; Fallopia convolvulus, post-emergence, 480 h, single active, 31.25 g/ha a.i., read-out: herbicidal activity against POLCO found
  pest or weed control at 31.25 g/ha: 20%
POLCO; 6 days after treatment, g/ha a.i.: I.1 31.25, B.96 70, mixture 31.25+70
  herbicidal activity against POLCO found: 35
POLCO; 6 days after treatment, g/ha a.i.: I.1 31.25, B.96 140, mixture 31.25+140
  herbicidal activity against POLCO found: 35
POLCO; 6 days after treatment, g/ha a.i.: I.1 31.25, naptalam 50, mixture 31.25+50
  herbicidal activity against POLCO found: 35
POLCO; 6 days after treatment, g/ha a.i.: I.1 62.5, B.96 70, mixture 62.5+70
  herbicidal activity against POLCO found: 70
POLCO; 6 days after treatment, g/ha a.i.: I.1 62.5, B.96 140, mixture 62.5+140
  herbicidal activity against POLCO found: 70
POLCO; 6 days after treatment, g/ha a.i.: I.1 62.5, naptalam 50, mixture 62.5+50
  herbicidal activity against POLCO found: 70
POLCO; I.1 15.6 g/ha, B.103 7.5 g/ha a.i.
  herbicidal activity against POLCO found: 10
POLCO; I.1 15.62 g/ha, B.167 62.5 g/ha a.i.
  herbicidal activity against POLCO found: 10
POLCO; I.1 15.62 g/ha, B.167 125 g/ha a.i.
  herbicidal activity against POLCO found: 10
POLCO; I.1 15.62 g/ha, B.89 12.5 g/ha a.i.
  herbicidal activity against POLCO found: 0
POLCO; I.1 62.5 g/ha, B.103 7.5 g/ha a.i.
  herbicidal activity against POLCO found: 40
POLCO; I.1 62.5 g/ha, B.103 15 g/ha a.i.
  herbicidal activity against POLCO found: 40
POLCO; I.1 62.5 g/ha, B.167 62.5 g/ha a.i.
  herbicidal activity against POLCO found: 40
POLCO; I.1 62.5 g/ha, B.167 125 g/ha a.i.
  herbicidal activity against POLCO found: 40
POLCO; a.i. g/ha: I.1 15.6, B.190 62.5, 20 days after treatment
  herbicidal activity against POLCO found: 30%
POLCO; a.i. g/ha: I.1 15.6, B.67 125, 20 days after treatment
  herbicidal activity against POLCO found: 0%
POLCO; a.i. g/ha: I.1 20.8, B.67 62.5, 20 days after treatment
  herbicidal activity against POLCO found: 30%
POLCO; a.i. g/ha: I.1 20.8, B.79 25, 20 days after treatment
  herbicidal activity against POLCO found: 50%
POLCO; a.i. g/ha: I.1 31.25, B.190 62.5, 20 days after treatment
  herbicidal activity against POLCO found: 50%
POLCO; a.i. g/ha: I.1 31.25, B.67 125, 20 days after treatment
  herbicidal activity against POLCO found: 0%
POLCO; a.i. g/ha: I.1 31.25, bentazon Na 125, 20 days after treatment
  herbicidal activity against POLCO found: 50%
POLCO; a.i. g/ha: I.1 62.5, B.67 62.5, 20 days after treatment
  herbicidal activity against POLCO found: 65%
POLCO; a.i. g/ha: I.1 62.5, B.79 25, 20 days after treatment
  herbicidal activity against POLCO found: 75%
POLCO; application rate a.i.: I.1 31.25 g/ha, B.100 (isoxaflutole) 12.5 g/ha, alone or as mixture (composition 1.100)
  herbicidal activity against POLCO found: 70
POLCO; application rate a.i.: I.1 31.25 g/ha, B.139 (pyroxasulfone) 12.5 g/ha, alone or as mixture (composition 1.139)
  herbicidal activity against POLCO found: 65
POLCO; application rate a.i.: I.1 31.25 g/ha, B.40 (imazethapyr) 7.5 g/ha, alone or as mixture (composition 1.40)
  herbicidal activity against POLCO found: 20
POLCO; application rate a.i.: I.1 62.5 g/ha, B.107 (topramezone) 6 g/ha, alone or as mixture (composition 1.107)
  herbicidal activity against POLCO found: 75
POLCO; application rate a.i.: I.1 62.5 g/ha, B.84 (paraquat-dichloride) 17.5 g/ha, alone or as mixture (composition 1.84)
  herbicidal activity against POLCO found: 90
POLCO; [1]
  herbicidal activity against POLCO found: 65
POLCO; applied alone at 62.5 g/ha a.i.
  herbicidal activity against POLCO found: 90
POLCO; applied alone at 125 g/ha a.i.
  herbicidal activity against POLCO found: 85
POLCO; g/ha a.i.: I.1 31.25, B.63 1, mixture 31.25+1
  herbicidal activity against POLCO found: 30
POLCO; g/ha a.i.: I.1 125, B.63 0.5, mixture 125+0.5
  herbicidal activity against POLCO found: 80
POLCO; g/ha a.i.: I.1 125, B.63 1, mixture 125+1
  herbicidal activity against POLCO found: 80
